Test system: Beagle dogs
Assay: Subchronic toxicity test in Beagle dogs: serum biochemistry
Type: in vivo
Details: dogs
Experimental: HZ1006 was administered orally to dogs (four/sex/group) at doses of 80, 40, 20, 5 and 0 (control) mg/kg/day, and the dosage volume was 2 mL/kg. The dogs received test doses with the exact amounts on a weekly basis based on current body weights. […] The other dogs in the above groups were dissected on the planned days. For the other groups, half of the dogs were anatomized on d28 and the remaining half on d42.
The following indexes were examined for the dogs used in the study, twice during the pre-dosage period and on d14, d28 and d42. The following parameters were evaluated on d28 and d42 for the rats in the study:
The animal blood samples were collected in the tubes containing the coagulator and centrifuged at 500 g for 10 min; the supernatant was then collected into a new tube. The serum biochemistry indexes included the following: alanine aminotransferase (ALT), alkaline phosphatase (ALP), aspartate aminotransferase (AST), blood urea (BU), lactate dehydrogenase (LDH), total bilirubin (TBIL), creatinine (Crea), albumin (ALB), total protein (TP), triglycerides (TG), total cholesterol (TCH), γ-glutamyltranspeptidase (g-GT), glucose (GLU), creatine phosphokinase (CPK), uric acid (UA), phosphorus (P), and calcium (Ca^2+). The above parameters were analyzed using an Automatic Analyzer 7080 provided by Hitachi High-Technologies Corp. (Tokyo, Japan). An Na/K/Cl Analyzer EasyLyte PLUS from Medica Corp. (Bedford, MA, USA), was used to determine the levels of chloride (Cl^−), sodium (Na^+) and potassium (K^+) in the blood samples.

[1] = 20 mg/kg/day oral, d42 (recovery)
[2] = 40 mg/kg/day oral, d0 (pre-dose)
[3] = 40 mg/kg/day oral, d42 (recovery)
[4] = 80 mg/kg/day oral, d0 (pre-dose)
[5] = 80 mg/kg/day oral, d42 (recovery)

CCCCCCCNc1cc(/C=C/C(=O)NO)ccc1OCCN(CC)CC [HZ1006]
ALP: Alkaline phosphatase (20 mg/kg/day oral, d28): 0.98 ± 0.27 µmol/s/L
ALT: Alanine aminotransferase (20 mg/kg/day oral, d28): 486 ± 90 nmol/s/L
AST: Aspartate aminotransferase (20 mg/kg/day oral, d28): 408 ± 57 nmol/s/L
BU: Blood urea (20 mg/kg/day oral, d28): 5.37 ± 1.78 mmol/L
CPK: Creatine phosphokinase (20 mg/kg/day oral, d28): 2.38 ± 0.53 µmol/s/L
CREA: Creatinine (20 mg/kg/day oral, d28): 52.1 ± 10.3 µmol/L
LDH: Lactate dehydrogenase (20 mg/kg/day oral, d28): 1.54 ± 0.74 µmol/s/L
TBIL: Total bilirubin (20 mg/kg/day oral, d28): 2.29 ± 0.31 µmol/L
TCH: Total cholesterol (20 mg/kg/day oral, d28): 3.95 ± 0.55 mmol/L
TG: Triglycerides (20 mg/kg/day oral, d28): 0.34 ± 0.05 mmol/L
ALP: Alkaline phosphatase [1]: 1.00 ± 0.24 µmol/s/L
ALT: Alanine aminotransferase [1]: 523 ± 148 nmol/s/L
AST: Aspartate aminotransferase [1]: 412 ± 31 nmol/s/L
BU: Blood urea [1]: 4.05 ± 0.37 mmol/L
CPK: Creatine phosphokinase [1]: 2.17 ± 0.30 µmol/s/L
CREA: Creatinine [1]: 49.6 ± 0.6 µmol/L
LDH: Lactate dehydrogenase [1]: 2.28 ± 0.93 µmol/s/L
TBIL: Total bilirubin [1]: 1.88 ± 0.19 µmol/L
TCH: Total cholesterol [1]: 3.81 ± 0.18 mmol/L
TG: Triglycerides [1]: 0.33 ± 0.12 mmol/L
ALP: Alkaline phosphatase [2]: 1.62 ± 0.40 µmol/s/L
ALT: Alanine aminotransferase [2]: 526 ± 179 nmol/s/L
AST: Aspartate aminotransferase [2]: 462 ± 57 nmol/s/L
BU: Blood urea [2]: 3.95 ± 0.48 mmol/L
CPK: Creatine phosphokinase [2]: 3.27 ± 0.76 µmol/s/L
CREA: Creatinine [2]: 49.2 ± 6.2 µmol/L
LDH: Lactate dehydrogenase [2]: 3.39 ± 1.55 µmol/s/L
TBIL: Total bilirubin [2]: 2.24 ± 0.24 µmol/L
TCH: Total cholesterol [2]: 5.38 ± 1.95 mmol/L
TG: Triglycerides [2]: 0.41 ± 0.10 mmol/L
ALP: Alkaline phosphatase (40 mg/kg/day oral, d14): 1.03 ± 0.32 µmol/s/L
ALT: Alanine aminotransferase (40 mg/kg/day oral, d14): 433 ± 304 nmol/s/L
AST: Aspartate aminotransferase (40 mg/kg/day oral, d14): 313 ± 23 nmol/s/L
BU: Blood urea (40 mg/kg/day oral, d14): 4.52 ± 1.05 mmol/L
CPK: Creatine phosphokinase (40 mg/kg/day oral, d14): 2.36 ± 0.19 µmol/s/L
CREA: Creatinine (40 mg/kg/day oral, d14): 52.5 ± 6.1 µmol/L
LDH: Lactate dehydrogenase (40 mg/kg/day oral, d14): 1.29 ± 0.68 µmol/s/L
TBIL: Total bilirubin (40 mg/kg/day oral, d14): 1.81 ± 0.24 µmol/L
TCH: Total cholesterol (40 mg/kg/day oral, d14): 4.47 ± 0.71 mmol/L
TG: Triglycerides (40 mg/kg/day oral, d14): 0.41 ± 0.12 mmol/L
ALP: Alkaline phosphatase (40 mg/kg/day oral, d28): 1.30 ± 0.24 µmol/s/L
ALT: Alanine aminotransferase (40 mg/kg/day oral, d28): 347 ± 78 nmol/s/L
AST: Aspartate aminotransferase (40 mg/kg/day oral, d28): 378 ± 71 nmol/s/L
BU: Blood urea (40 mg/kg/day oral, d28): 4.66 ± 0.96 mmol/L
CPK: Creatine phosphokinase (40 mg/kg/day oral, d28): 3.00 ± 0.94 µmol/s/L
CREA: Creatinine (40 mg/kg/day oral, d28): 52.6 ± 9.8 µmol/L
LDH: Lactate dehydrogenase (40 mg/kg/day oral, d28): 2.76 ± 2.49 µmol/s/L
TBIL: Total bilirubin (40 mg/kg/day oral, d28): 2.04 ± 0.43 µmol/L
TCH: Total cholesterol (40 mg/kg/day oral, d28): 4.66 ± 1.85 mmol/L
TG: Triglycerides (40 mg/kg/day oral, d28): 0.43 ± 0.18 mmol/L
ALP: Alkaline phosphatase [3]: 1.34 ± 0.34 µmol/s/L
ALT: Alanine aminotransferase [3]: 514 ± 112 nmol/s/L
AST: Aspartate aminotransferase [3]: 468 ± 80 nmol/s/L
BU: Blood urea [3]: 4.87 ± 1.56 mmol/L
CPK: Creatine phosphokinase [3]: 3.00 ± 1.32 µmol/s/L
CREA: Creatinine [3]: 58.8 ± 2.0 µmol/L
LDH: Lactate dehydrogenase [3]: 3.50 ± 2.49 µmol/s/L
TBIL: Total bilirubin [3]: 1.88 ± 0.08 µmol/L
TCH: Total cholesterol [3]: 4.55 ± 1.10 mmol/L
TG: Triglycerides [3]: 0.45 ± 0.04 mmol/L
ALP: Alkaline phosphatase [4]: 1.62 ± 0.49 µmol/s/L
ALT: Alanine aminotransferase [4]: 591 ± 143 nmol/s/L
AST: Aspartate aminotransferase [4]: 493 ± 103 nmol/s/L
BU: Blood urea [4]: 4.38 ± 0.72 mmol/L
CPK: Creatine phosphokinase [4]: 3.24 ± 0.77 µmol/s/L
CREA: Creatinine [4]: 53.4 ± 5.2 µmol/L
LDH: Lactate dehydrogenase [4]: 2.71 ± 0.97 µmol/s/L
TBIL: Total bilirubin [4]: 2.64 ± 0.41 µmol/L
TCH: Total cholesterol [4]: 4.03 ± 1.04 mmol/L
TG: Triglycerides [4]: 0.38 ± 0.15 mmol/L
ALP: Alkaline phosphatase (80 mg/kg/day oral, d14): 1.27 ± 1.15 µmol/s/L
ALT: Alanine aminotransferase (80 mg/kg/day oral, d14): 312 ± 38 nmol/s/L
AST: Aspartate aminotransferase (80 mg/kg/day oral, d14): 386 ± 104 nmol/s/L
BU: Blood urea (80 mg/kg/day oral, d14): 4.66 ± 0.93 mmol/L
CPK: Creatine phosphokinase (80 mg/kg/day oral, d14): 3.29 ± 1.86 µmol/s/L
CREA: Creatinine (80 mg/kg/day oral, d14): 58.2 ± 4.8 µmol/L
LDH: Lactate dehydrogenase (80 mg/kg/day oral, d14): 1.76 ± 1.85 µmol/s/L
TBIL: Total bilirubin (80 mg/kg/day oral, d14): 2.74 ± 2.93 µmol/L
TCH: Total cholesterol (80 mg/kg/day oral, d14): 4.62 ± 2.51 mmol/L
TG: Triglycerides (80 mg/kg/day oral, d14): 0.56 ± 0.28 mmol/L
ALP: Alkaline phosphatase (80 mg/kg/day oral, d28): 1.01 ± 0.27 µmol/s/L
ALT: Alanine aminotransferase (80 mg/kg/day oral, d28): 307 ± 51 nmol/s/L
AST: Aspartate aminotransferase (80 mg/kg/day oral, d28): 310 ± 59 nmol/s/L
BU: Blood urea (80 mg/kg/day oral, d28): 5.25 ± 1.21 mmol/L
CPK: Creatine phosphokinase (80 mg/kg/day oral, d28): 1.73 ± 0.24 µmol/s/L
CREA: Creatinine (80 mg/kg/day oral, d28): 54.3 ± 8.9 µmol/L
LDH: Lactate dehydrogenase (80 mg/kg/day oral, d28): 0.97 ± 0.30 µmol/s/L
TBIL: Total bilirubin (80 mg/kg/day oral, d28): 2.19 ± 0.20 µmol/L
TCH: Total cholesterol (80 mg/kg/day oral, d28): 4.16 ± 1.39 mmol/L
TG: Triglycerides (80 mg/kg/day oral, d28): 0.45 ± 0.11 mmol/L
ALP: Alkaline phosphatase [5]: 0.99 ± 0.14 µmol/s/L
ALT: Alanine aminotransferase [5]: 549 ± 181 nmol/s/L
AST: Aspartate aminotransferase [5]: 460 ± 83 nmol/s/L
BU: Blood urea [5]: 4.93 ± 0.50 mmol/L
CPK: Creatine phosphokinase [5]: 2.86 ± 0.53 µmol/s/L
CREA: Creatinine [5]: 65.9 ± 11.3 µmol/L
TBIL: Total bilirubin [5]: 1.90 ± 0.23 µmol/L
TCH: Total cholesterol [5]: 3.52 ± 0.84 mmol/L
TG: Triglycerides [5]: 0.40 ± 0.14 mmol/L

— paper PMC5201331, “Subchronic Toxicities of HZ1006, a Hydroxamate-Based Histone Deacetylase Inhibitor, in Beagle Dogs and Sprague-Dawley Rats” (International Journal of Environmental Research and Public …, 2016)
